Assay [1] concerns the target T1, Streptococcus pneumoniae peptide deformylase, wild type (W.T.) (Streptococcus pneumoniae serotype 4, UniProt Q9F2F0).
T1 sequence (Q9F2F0 1-203): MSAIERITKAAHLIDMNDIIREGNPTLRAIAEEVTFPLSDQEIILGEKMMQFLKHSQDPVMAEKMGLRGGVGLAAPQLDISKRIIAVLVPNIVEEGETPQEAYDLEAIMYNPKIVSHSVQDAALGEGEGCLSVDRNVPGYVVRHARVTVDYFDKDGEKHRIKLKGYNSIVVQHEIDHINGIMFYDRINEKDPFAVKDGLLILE
As to the kind of experiment: Inhibition of S. pneumoniae peptide deformylase activity, wild type enzyme. In kind it is biochemical. The note with it: PDF W.T. The procedure: (§1) A PDF/FDH coupled assay (Lazennec et al., Anal. Biochem., Vol. 224, pp. 180-182 (1997)) is used. In this coupled assay, the formate released by PDF from its substrate fMAS is oxidized by the coupling enzyme FDH, reducing one molecule of NAD^+ to NADH, which causes an increase in absorption at 340 nm. All assays are carried out at room temperature in a buffer of 50 mM HEPES, pH 7.2, 10 mM NaCl, 0.2 mg/mL BSA, In half-area 96-well microtiter plates (Corning). The reaction is initiated by adding a mixture of 0.5 Unit/mL FDH, 1 mM NAD^+, and fMAS at the desired concentration. To determine IC50 (the concentration needed to inhibit 50% of enzyme activity) values, PDF is pre-incubated for 10 minutes with varying concentrations of the inhibitor, and the deformylation reaction is initiated by the addition of reaction mixture containing 4 mM fMAS. The initial reaction velocity, y, is measured as the initial rate of absorption increase at […] using a SpectraMax plate reader (Molecular Devices, Sunnyvale, Calif.). The Inhibitor concentration [In] at which 50% of the enzyme activity is inhibited, IC50, is calculated using the following formula:
(§2) where yo is the reaction velocity in the absence of inhibitor. Solving this equation for IC50 at the [In] when y=yo/2 yields IC50. The IC50 is calculated based on a nonlinear least-square regression fit using a commercial software package (Deltapoint, Inc., Chicago, Ill.).
(§3) Peptide deformylase activity is essential for growth of S. pneumoniae. The mutants that are selected on NVP-LBM415 were not compromised for growth in vitro, therefore the mutations in defB that confer resistance to these compounds would not be expected to dramatically alter enzymatic activity. To test this hypothesis, the kinetics of peptide deformylase activity are determined using the substrate f-Met-Ala-Ser.
(§4) To investigate further, the IC50s and MICs of specific pairs of compounds differing only in this feature are determined.

Assay [2] relates to Streptococcus pneumoniae PDF G70D mutant. As to the kind of experiment: MIC, culture growth of S. pneumoniae PDF G70D mutant. In kind it is cell-based. The note with it: PDFG70DMUTANT. The protocol: (§5) Minimum inhibitory concentrations (MICs) are determined using the microdilution method In 96-well format plates. Compounds are suspended in DMSO at 5 or 10 mg/mL and stored at 4° C. until used. They are diluted in Mueller-Hinton Broth (MHB) or Trypticase Soy Broth (TSB) and used for MIC determination. The range of concentrations tested is 64-0.0625 μg/mL final concentration using a two-fold dilution system.
(§6) The inoculum is prepared from cells grown on Trypticase Soy Agar (TSA) and incubated overnight at 35° C., 5-10 colonies are used to inoculate MHB or TSB broths, and the culture is incubated overnight at 35° C. The overnight culture is diluted 1:10, incubated for 1 hour at 35° C., diluted to the appropriate inoculum size and applied to the wells containing broth and test compound. Inoculum sizes are 2×10^4 CFU/mL.
as §4

The target in assay [3] is T2, Streptococcus pneumoniae peptide deformylase G70D mutant (Streptococcus pneumoniae serotype 4, UniProt Q9F2F0, G70D).
T2 sequence (Q9F2F0 1-203 G70D): T1 sequence (Q9F2F0 1-203) with G70D
Description: Inhibition of S. pneumoniae peptide deformylase activity, G70D mutant enzyme. Format: biochemical. The note with it: PDF G70D. The protocol: as §1, §2, §3, §4

Assay [4] relates to Streptococcus pneumoniae PDF G70V mutant. As to the kind of experiment: MIC, culture growth of S. pneumoniae PDF G70V mutant. In kind it is cell-based. The note with it: PDFG70VMUTANT. The procedure: as §5, §6, §4
For assay [5], the target named is T3, Streptococcus pneumoniae peptide deformylase G70V mutant (Streptococcus pneumoniae serotype 4, UniProt Q9F2F0, G70V).
T3 sequence (Q9F2F0 1-203 G70V): T1 sequence (Q9F2F0 1-203) with G70V
Description: Inhibition of S. pneumoniae peptide deformylase activity, G70V mutant enzyme. In kind it is biochemical. The note with it: PDF G70V. The procedure:
as §1, §2, §3, §4

The test system of assay [6] is Streptococcus pneumoniae (wild type PDF). As to the kind of experiment: MIC, culture growth of S. pneumoniae with wild type PDF. In kind it is cell-based. The note with it: PDF W.T. The protocol:
as §5, §6, §4

Changes are numbered by the printed parent chain. Converted amounts (≈) assume the structure as drawn.

`O=CN(O)C[C@@H](CC1CCCC1)C(=O)N1C[C@H](F)C[C@H]1C(=O)Nc1cnccn1`: the IC50 (in general, the concentration that inhibits the measured activity by half) was 0.25 ± 0.04 nM in assay [1], 0.34 nM in assay [3] and 0.5 nM in assay [5]. For the same compound, the MIC (in general, the lowest concentration found to suppress growth) in assay [2] was 0.25 µg/mL (≈ 0.614 µM); in assay [4], 0.33 µg/mL (≈ 0.81 µM); in assay [6] it was 0.16 ± 0.1 µg/mL (≈ 0.393 µM).
As to `O=CN(O)C[C@@H](CC1CCCC1)C(=O)N1C[C@H](F)C[C@H]1C(=O)Nc1cncc[n+]1[O-]`, the IC50 in assay [1] was 0.37 ± 0.02 nM; in assay [3], 0.91 nM; in assay [5], 2.05 nM. For the same compound, the figures for the MIC in assay [2], in assay [4] and in assay [6] were 1 µg/mL (≈ 2.36 µM), 2.67 µg/mL (≈ 6.31 µM) and 0.29 ± 0.11 µg/mL (≈ 0.685 µM), respectively.
Consider `CCCC[C@H](CN(O)C=O)C(=O)N1C[C@H](C(C)C)C[C@H]1C(=O)Nc1ccc(F)cn1`, for which the IC50 in assay [1] is 0.27 ± 0.03 nM; in assay [3] it was 0.25 nM; in assay [5], 0.7 nM. The figures for the MIC in assay [2], in assay [4] and in assay [6] were 1.07 µg/mL (≈ 2.53 µM), 1.43 µg/mL (≈ 3.38 µM) and 0.71 ± 0.1 µg/mL (≈ 1.68 µM), respectively.
On to `CCCC[C@H](CN(O)C=O)C(=O)N1C[C@H](C(C)C)C[C@H]1C(=O)Nc1ccc(F)c[n+]1[O-]`, for which the values for the IC50 in assay [1], in assay [3] and in assay [5] were 0.31 ± 0.03 nM, 1.19 nM and 1.56 nM, respectively. The minimal inhibitory concentration (MIC) is 5.14 µg/mL (≈ 11.7 µM) in assay [2], 6.3 µg/mL (≈ 14.4 µM) in assay [4] and 0.64 ± 0.09 µg/mL (≈ 1.46 µM) in assay [6].
On to `CCCC[C@H](CN(O)C=O)C(=O)N1C[C@@H](C(C)C)C[C@H]1C(=O)Nc1ccc(F)cn1`, for which the IC50 in assay [1] is 0.31 ± 0.04 nM; in assay [3] it was 0.46 nM; in assay [5], 1.01 nM. The MIC in assay [2] is 1.57 µg/mL (≈ 3.72 µM); in assay [4], 2.86 µg/mL (≈ 6.77 µM); in assay [6], 1.43 ± 0.2 µg/mL (≈ 3.38 µM).
Turning to `CCCC[C@H](CN(O)C=O)C(=O)N1C[C@@H](C(C)C)C[C@H]1C(=O)Nc1ccc(F)c[n+]1[O-]`, the results for the IC50 in assay [1], in assay [3] and in assay [5] were 0.23 ± 0.04 nM, 1.38 ± 0.78 nM and 1.78 nM, respectively. The MIC in assay [2] was 10.3 µg/mL (≈ 23.4 µM); in assay [4], 10.3 µg/mL (≈ 23.5 µM); in assay [6] it was 1.42 ± 0.2 µg/mL (≈ 3.24 µM).
With `CCCC[C@H](CN(O)C=O)C(=O)N1CCC[C@H]1C(=O)Nc1ccc(F)c[n+]1[O-]` [reference compound], the figures for the IC50 in assay [1], in assay [3] and in assay [5] were 0.31 ± 0.03 nM, 1.28 nM and 1.35 nM, respectively. Also, the MIC is 6.44 µg/mL (≈ 16.2 µM) in assay [2], 5.8 µg/mL (≈ 14.6 µM) in assay [4] and 0.45 ± 0.07 µg/mL (≈ 1.14 µM) in assay [6].

(Values after patent US20090062537A1, “N-Formyl Hydrozyamine Compounds” (priority 2006, published 2009).)
